Results published in paper PMC5085131, “Cyclic AMP efflux inhibitors as potential therapeutic agents for leukemia” (Oncotarget, 2016).

What was measured:
U937 cells [1] = test: F-cAMP efflux assay in U937 cells (screen and dose response); type: cell-based, human; conditions: screen at 10 μM, 51 hits retested in dose-response
Protocol: Cells were loaded with F-cAMP as described. Briefly, cells were resuspended in a hypertonic solution containing 10% polyethylene glycol 1000, 0.5 M sucrose, and 250 μM F-cAMP in cRPMI without FBS, incubated 10 min at room temperature, washed, and then resuspended in hypotonic solution (60% cRPMI, 40% sterile water) for 2 min at room temperature to complete F-cAMP loading. Cells were resuspended in cRPMI and equilibrated for 2 h under normal culture conditions.
Samples were evaluated using Accuri C6 or BD FACScan flow cytometers (Becton Dickinson (BD)).
Liquid handling was accomplished with a Biomek FX Multichannel system (Beckman-Coulter, Fullerton, CA, USA) and/or Biotek Multiflo system (Winooski, VT, USA). F-cAMP-loaded U937 cells (2000/well) were seeded into 384-well polypropylene plates (Greiner Bio-One 784201, Monroe, NC, USA). Cells were treated with compounds (10 μM final concentration) from the Prestwick Chemical Library (Illkirch, France) or […] Collection (MicroSource, Gaylordsville, CT, USA) delivered by pintool (V&P Scientific, San Diego, CA), at a final DMSO concentration of 1%. Plates were foil-sealed with AlumaSeal 384™ (Excel Scientific, Victorville, CA, USA), and incubated inverted overnight. Sample plates were analyzed by CyAn flow cytometers (Beckman-Coulter) configured with HyperCyt high-throughput auto-sampler systems (IntelliCyt, Albuquerque, NM, USA) using 488 nm excitation to assess FL-1 (530/40) MFI levels.
Data were analyzed with HyperView software (IntelliCyt) and time-gated to determine data from each well. Wells with ≥ 50 events were evaluated for FL-1 MFI values. Samples with MFI values ≥ 2 standard deviations above the plate mean negative control values were considered “hit” compounds.
To validate sample data and decrease the number of false-positive hits, compounds were assayed in a high-throughput dose response assay. Plates were set up as in the HTS, with the exception that the plate formats contained 10-well dose responses for each hit compound, at final concentrations ranging from 30 μM to 4 nM.
The dose response data were normalized for percent response based on sample FL-1 MFI values in comparison to untreated F-cAMP-loaded cells kept at 4°C overnight or at time = 0, and were fitted by GraphPad Prism 5 software (GraphPad Software, La Jolla, CA, USA) for sigmoidal dose response with constrained hill slope = 1.

U937 cells [2] = test: MultiCyt 4-Plex apoptosis assay; type: cell-based, human; conditions: for EC50: Homo sapiens, U-937, 24 h
Protocol: Apoptosis was determined using MultiCyt® 4-Plex Apoptosis Screening Kit (IntelliCyt, cat. 90053). The kit provides four different apoptosis endpoints that include effector caspases 3 and 7 activation, phosphatidylserine surface expression, mitochondrial membrane depolarization and cell membrane integrity. […] Cell membrane damage is detected by the uptake of a proprietary DNA intercalating agent analogous to 7-aminoactinomycin D.
384-well plates (Greiner 784201), pre-loaded with 5 μL cRPMI were stamped using a pintool with 100 nl of DMSO-solubilized compounds from the 100-fold concentrated stock solution. Next, 5 μL U937 cells (2 × 10^6/ml in cRPMI) were added to wells and mixed, and plates were foil-sealed. Compounds (Table 1) were tested in dose response at final concentrations ranging from 15.2 nM to 100 μM (1% DMSO final). Vehicle (DMSO) was used as a negative control. After 24 h incubation under culture conditions, the IntelliCyt MultiCyt 4-Plex Apoptosis Screening Kit was used according to manufacturer's protocol. The data were acquired using iQue Screener Platform (IntelliCyt). Singlet cell populations were analyzed for individual measures of apoptosis, and gates were set based on control histograms.

697 = test: CellTiter-Glo cell viability; type: cell-based; conditions: Homo sapiens; overnight, n = 6, ± SEM; read-out: Compound EC50, 697 (cell viability)
Protocol: (§1) Cell viability was determined with the CellTiter-Glo® Luminescent Cell Viability Assay (Promega). Greiner 655083 had 100 μL cRPMI +/− 4×10^4 cells/well, and dose response curves of compounds ranged from 100 μM to 1.53 nM (1% DMSO). Wells with DMSO-only served as negative controls. Samples were incubated overnight, and the assay was completed according to the manufacturer's protocol. Plates were analyzed using a Victor^3V™ 1420 Multilabel Counter (Perkin Elmer).

Sup B15 = test: CellTiter-Glo cell viability; type: cell-based; conditions: Homo sapiens, overnight, n = 6, ± SEM, read-out: Compound EC50, Sup B15 (cell viability)
Protocol: as §1

U937 cells [3] = test: CellTiter-Glo cell viability; type: cell-based; conditions: Homo sapiens, U-937; overnight, n = 8, ± SEM, fit top = 100, bottom = 0, hill slope = −1; read-out: Compound EC50, U937 (cell viability)
Protocol: as §1

normal human PBMCs = test: CellTiter-Glo cell viability; type: cell-based; conditions: PBMC, overnight, n = 6, ± SEM, read-out: Compound EC50, PBMCs (cell viability)
Protocol: Healthy PBMCs were obtained from volunteers. Mononuclear cells were purified using Mono-Poly resolving medium (MP Biomedicals, cat. 091698049) according to manufacturer's instructions. PBMCs were resuspended in cRPMI and kept on ice prior to use.
as §1

B-ALL cell lines = test: CellTiter-Glo cell viability, all B-ALL cell lines together; type: cell-based, human; conditions: Homo sapiens; mean of converged EC50s of six B-ALL lines; read-out: Compound EC50, Mean B-ALL (cell viability)
Protocol: as §1

[4] = parameters: method as in as printed in each cell; conditions: previously reported; cited from earlier work
VLA-4 = test: Kinetic analysis of VLA-4 deactivation (LDV-FITC dissociation) in U937 cells with non-desensitizing FPR1 mutant; type: cell-based, human; conditions: U937 cells pre-activated through FPR1 mutant, 40 μM, 37°C
Protocol: Kinetic analysis of the binding and dissociation of the LDV-FITC probe was described previously. Briefly, flow cytometric data were acquired at 37°C while the samples were stirred continuously with a stir bar (Bel-Art Products). First, U937 cells transfected with a non-desensitizing mutant of the Formyl Peptide Receptor FPR1 [43] were analyzed for 30-120 s to establish a baseline. The FPR1 mutant triggers VLA-4 activation, which persists for hundreds of seconds, allowing for integrin deactivation to be detected. Next, the LDV-FITC was added and acquisition was re-established. […] Finally, 40 μM of ICE, forskolin (positive control) or vehicle (negative control) were added. Acquisition was re-established, and data were acquired continuously for up to 1024 s.
Therefore, the transition from low to high affinity state led to increased binding of the probe. This was detected as an increase in the median fluorescence intensity (MFI). VLA-4 deactivation led to the dissociation of the probe and decreased MFI [21].

[5] = mean of converged EC50s, read-out: Compound EC50, Means (of the apoptosis endpoints)
[6] = n = 4, ± SEM, read-out: Compound EC50, Annexin-V +
[7] = n = 4, ± SEM, read-out: Compound EC50, Cell membrane damage
[8] = n = 4, ± SEM, read-out: Compound EC50, Mitochondrial depolarization
[9] = even at the highest ICE concentrations
[10] = n = 4, ± SEM, read-out: Compound EC50, Active Caspase 3/7 +

SMILES | Outcome of screen for inhibitors of cAMP efflux after dose-response validation (U937 cells [1]) | EC50 (U937 cells [2]; [5]) | EC50 (U937 cells [2]; [6]) | EC50 (U937 cells [2]; [7]) | EC50 (U937 cells [2]; [8]) | EC50 697 | EC50 (Sup B15) | EC50 (U937 cells [3]) | EC50 (normal human PBMCs) | EC50 (B-ALL cell lines) | Anticancer effects [4] | Potential mechanism(s) of action [4] | VLA-4 deactivation (dissociation of LDV-FITC) (VLA-4) | Effect on annexin-V binding (U937 cells [2]; [9]) | Effect on caspase activation (U937 cells [2]; [9]) | EC50 (U937 cells [2]; [10])
Oc1c(I)cc(Cl)c2cccnc12 [Clioquinol] | potentially active | 26.7 µM | 51.1 ± 26.2 µM | 11.1 ± 0.48 µM | 17.9 ± 2.3 µM | 18.6 ± 7.74 µM | 15.4 ± 3.51 µM | 40.6 ± 10.8 µM | 87.8 ± 46.8 µM | 35.2 µM | ↓cyclin D1 [110]; ↑p21, p27, p53 [106] | ↓NF-κB activation [108, 112]; ionophore/chelator activity [106, 108, 112]; proteasome inhibition [107, 109] | – | – | – | –
C[C@H]1COC2=C1C(=O)C(=O)c1c2ccc2c1CCCC2(C)C [Cryptotanshinone] | potentially active | 25.8 µM | – | 30.7 ± 6.83 µM | 20.9 ± 6.96 µM | 67.1 ± 31.8 µM | 29.2 ± 7.58 µM | 11.8 ± 6.78 µM | 11.8 ± 3.11 µM | 67.7 µM | ↓cyclin D1, Bcl-2 [47, 115, 116]; ↑p53, Chk1, Chk2 [120] | ↓mTOR, STAT3 signaling [116, 117]; ↓eIF-4E [47] | rapid and reversible VLA-4 deactivation | very small effect | very small effect | –
C=C1C(=O)O[C@H]2[C@H]1CC/C(C)=C/CC[C@@]1(C)O[C@@H]21 [Parthenolide] | potentially active | 7.44 µM | 7.55 ± 1.18 µM | 4.34 ± 0.9 µM | 5.52 ± 1.02 µM | 1.13 ± 0.31 µM | 1.54 ± 0.36 µM | 2.86 ± 1.55 µM | 56 ± 23.3 µM | 1.77 µM | ↓VEGF expression & metastasis [61, 124, 125]; ↑p53 activation [48]; ↓cyclin D1 [61, 122] | ↓NF-κB & AP-1 activation [48, 61, 124, 126, 127]; ↓MAPK/ERK signaling [126, 127]; ↓STAT signaling [128]; ↑ROS[48, 65, 128] | exceeded the effects of the positive control, forskolin | – | – | 12.4 ± 2.51 µM
O=C1C=C2C(=CCOC2O)O1 (stereo not drawn) [Patulin] | potentially active | 4.95 µM | 3.75 ± 0.63 µM | 1.54 ± 0.02 µM | 1.72 ± 0.94 µM | 0.13 ± 0.04 µM | 0.2 ± 0.12 µM | 3.1 ± 2.22 µM | 246 ± 181 µM | 0.38 µM | ↓ERK1/2 activation [52, 133]; ↑UPR[52, 133]; ↑intracellular [Ca2+] [134] | ↑ROS, DNA damage [57, 59, 132, 133, 135]; ↓glutathione [133, 135] | exceeded the effects of the positive control, forskolin | – | – | 12.8 ± 0.09 µM
